13 compounds from US12338256B2, “Aza-tetracyclic oxazepine compounds and uses thereof” (Genentech, Inc., priority 2022, dated 2025) can be followed below.

Read-outs that look alike come from different tables or passages of the source. Some results are limits rather than exact numbers.

In one assay the target is KRAS G12D (Homo sapiens, UniProt P01116, G12D). Description: KRAS G12D LoEnz Biochemical Assay, BODIPY-GDP Exchange TR-FRET (Example 500). The note with it: read-out: KRas (G12D) GDP HTRF IC50. The method, then: Example 500: KRAS G12D LoEnz Biochemical Assay, BODIPY-GDP Exchange TR-FRET. Biochemical compound potencies are assessed by evaluating inhibition of SOS1-mediated nucleotide exchange in KRAS G12D. In this assay, the SOS1-promoted exchange of fluorescently-labeled GDP (BOPIDY-GDP) is monitored by time-resolved fluorescence resonance energy transfer (TR-FRET). Compounds solubilized in DMSO are dispensed as concentration series into 384-well white assay plates. A preformed complex of biotin-tagged recombinant human KRAS (0.06 nM mutant G12D) and 0.06 nM terbium-labeled streptavidin (CisBIO) prepared in 10 uL/well assay buffer (20 mM HEPES, pH 7.5, 50 mM NaCl, 10 mM MgCl2, 0.01% Tween-20 and 1 mM dithiothreitol) is added and allowed to incubate for 10-minutes at room temperature. The reaction is initiated with the addition of 5 uL 300 nM recombinant human SOS1 and 300 nM BODIPY-GDP in assay buffer. After a 120-minute incubation, the fluorescence is measured with excitation at 337 nm and emission at 490 and 520 nm. The TR-FRET ratio is determined as the fluorescence at 520 nm divided by the fluorescence at 490 nm multiplied by 10,000. The results are normalized to percent inhibition based on control samples: DMSO (0% inhibition) and control compound at a concentration that inhibits completely (100% inhibition). The normalized TR-FRET results are plotted against compound concentration, and the data are fit to a 4-parameter Hill equation to determine the IC50 values.
On the technique in general: TR-FRET usually uses a lanthanide donor and a delayed reading to cut background.

Assay [1] has as its system AsPC-1 (homozygous mutant KRAS G12D human pancreatic cell line). Description: KRAS 3D-Cell Proliferation Assay, AsPC-1 (Example 503). Format: cell-based. The following applies: Homo sapiens, ASPC1, 168 h, AsPC-1 3D culture, 7 days, CellTiter-Glo 3D; read-out: Prolif AsPC-1 3D ATP IC50. A digest of the protocol: (§1)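 Cells grown in 3D in ultra-low attachment plates (RPMI-1640 with 10% FBS and 2 mM L-glutamine) received compound dilution series after overnight attachment, at 0.3% DMSO final, for 7 days at 37° C. ATP luminescence (CellTiter-Glo 3D) normalized to DMSO and 1 μM staurosporine; IC50 from 4-parameter Hill fit.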
For orientation: In ATP-based viability assays light output follows the ATP content of the culture.

Assay [2] has as its system HPAC (homozygous mutant KRAS G12D human pancreatic cell line). Description: KRAS 3D-Cell Proliferation Assay, HPAC (Example 503). Type of assay: cell-based. The note with it: Homo sapiens, HPAC, 168 h, HPAC 3D culture, 7 days, CellTiter-Glo 3D; read-out: Prolif HPAC 3D ATP IC50. A digest of the protocol:
as §1

Assay [3] relates to PC-9 (KRAS wild type human lung adenocarcinoma cell line). Description: KRAS 3D-Cell Proliferation Assay, PC-9 (Example 503). Format: cell-based. The following applies: 168 h, PC-9 3D culture, 7 days, CellTiter-Glo 3D, read-out: Prolif PC9 3D ATP IC50. A digest of the protocol:
as §1

Assay [4] deals with H1975 (KRAS wild type human lung adenocarcinoma cell line). Description: KRAS 3D-Cell Proliferation Assay, H1975 (Example 503). The following applies: Homo sapiens, NCI-H1975, 168 h, H1975 3D culture, 7 days, CellTiter-Glo 3D; read-out: Prolif H1975 3D ATP IC50. Type of assay: cell-based. A digest of the protocol:
as §1

In another assay the target is KRAS WT (Homo sapiens, UniProt P01116). Description: KRAS WI Biochemical Assay, BODIPY-GDP Exchange TR-FRET (Example 501; 3 nM KRAS WT, 3 nM SOS1, 60-minute incubation). As to the method:
Example 501: KRAS WI Biochemical Assay, BODIPY-GDP Exchange TR-FRET. Biochemical compound potencies are assessed by evaluating inhibition of SOS1-mediated nucleotide exchange in KRAS WT. In this assay, the SOS1-promoted exchange of fluorescently-labeled GDP (BOPIDY-GDP) is monitored by time-resolved fluorescence resonance energy transfer (TR-FRET). Compounds solubilized in DMSO are dispensed as concentration series into 384-well white assay plates, and 5 uL assay buffer (20 mM HEPES, pH 7.5, 50 mM NaCl, 10 mM MgCl2, 0.01% Tween-20 and 1 mM dithiothreitol) is added just prior to the start of the assay. A preformed complex of 3 nM biotin-tagged recombinant human KRAS WT and 0.3 nM terbium-labeled streptavidin (CisBIO) prepared in 5 uL/well assay buffer is added and allowed to incubate for 10-minutes at room temperature. The reaction is initiated with the addition of 5 uL 3 nM recombinant human SOS1 and 300 nM BODIPY-GDP in assay buffer. After a 60-minute incubation, the fluorescence is measured with excitation at 337 nm and emission at 490 and 520 nm. The TR-FRET ratio is determined as the fluorescence at 520 nm divided by the fluorescence at 490 nm multiplied by 10,000. The results are normalized to percent inhibition based on control samples: DMSO (0% inhibition) and control compound at a concentration that inhibits completely (100% inhibition). The normalized TR-FRET results are plotted against compound concentration, and the data are fit to a 4-parameter Hill equation to determine the IC50 values.

Where [5] appears, read: SOS1-mediated BODIPY-GDP exchange TR-FRET.
[6] abbreviates: SOS1-mediated BODIPY-GDP exchange TR-FRET, read-out: KRas HTRF IC50.
Setting [7] is: SOS1-mediated BODIPY-GDP exchange, read-out: KRas(wt) GDP HTRF IC50.

A word on the IC50: it is the concentration needed to halve the response being measured.

Chain of KRAS G12D (P01116 1-188 isoform P01116-2 G12D): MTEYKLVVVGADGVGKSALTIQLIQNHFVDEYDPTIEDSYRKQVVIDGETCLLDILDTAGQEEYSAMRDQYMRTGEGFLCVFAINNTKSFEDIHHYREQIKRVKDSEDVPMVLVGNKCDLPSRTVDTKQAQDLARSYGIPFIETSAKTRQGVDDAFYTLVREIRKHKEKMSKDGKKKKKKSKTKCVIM
Chain of KRAS WT (P01116 1-188 isoform P01116-2): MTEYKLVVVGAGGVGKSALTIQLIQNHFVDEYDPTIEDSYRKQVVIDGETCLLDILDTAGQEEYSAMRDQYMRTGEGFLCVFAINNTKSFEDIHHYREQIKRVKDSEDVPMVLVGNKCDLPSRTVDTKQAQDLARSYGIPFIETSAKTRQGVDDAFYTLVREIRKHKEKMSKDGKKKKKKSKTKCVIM

Turning to `Cc1c(F)c(N)cc(-c2nc3c4c(nc(OC[C@]5(CN6CC7(COC7)C6)CC5(F)F)nc4c2F)N2C[C@H]4CC[C@H](N4)[C@H]2[C@H](C)O3)c1C(F)(F)F` (single isomer, unassigned) [165 b], the IC50 at KRAS G12D (BODIPY-GDP exchange) amounted to 0.1 nM.
As to `Cc1cc(N)c(Cl)c(-c2nc3c4c(nc(OC[C@@]56CCCN5C[C@H](F)C6)nc4c2Cl)N2C[C@H]4CC[C@H](N4)[C@H]2[C@H](C)O3)c1C(F)(F)F` (single isomer, unassigned) [240 (atrop. 1)], at KRAS G12D (setting [5]), the IC50 is 44.9 nM.
As for `Cc1cc(N)c(Cl)c(-c2nc3c4c(nc(OC[C@@]56CCCN5C[C@H](F)C6)nc4c2Cl)N2C[C@H]4CC[C@H](N4)[C@H]2[C@H](C)O3)c1C(F)(F)F` (single isomer, unassigned) [240 (atrop. 2)], the IC50 in assay [1] is 1.5 nM; at KRAS G12D (setting [5]), 0.14 nM.
Take `C#Cc1cccc2cc(O)cc(-c3nc4c5c(nc(OC[C@]67CCN6CC(F)(F)C7)nc5c3F)N3C[C@H]5CC[C@H](N5)[C@H]3[C@H](C)O4)c12` (single isomer, unassigned) [Compound 19]: the IC50 in assay [2] stood at 3.31 nM; in assay [3] it was 8800 nM; in assay [1], 5.05 nM; at KRAS G12D (BODIPY-GDP exchange), 0.08 nM; in assay [4] it was 217 nM.
`Cc1cc(N)c(Cl)c(-c2nc3c4c(nc(OC[C@@]56CCCN5C[C@H](F)C6)nc4c2F)N2C[C@H]4CC[C@H](N4)[C@H]2[C@H](C)O3)c1C(F)(F)F` (single isomer, unassigned) [Compound 199]: the IC50 in assay [2] worked out at 0.98 nM; on KRAS WT (setting [6]), 9.63 nM; in assay [1], 4.06 nM; at KRAS G12D (setting [5]) it was 0.17 nM; in assay [4] it was 1050 nM.
`Cc1c(Cl)c(N)cc(-c2nc3c4c(nc(OC[C@@]56CCCN5C[C@H](F)C6)nc4c2F)N2C[C@H]4CC[C@H](N4)[C@H]2[C@H](C)O3)c1C(F)(F)F` (single isomer, unassigned) [Compound 200]: the half-maximal inhibitory concentration (IC50) in assay [2] amounted to 6.83 nM; at KRAS WT (setting [6]), 6.7 nM; at KRAS G12D (setting [5]), 0.1 nM; in assay [4], 593 nM.
For the compound `C[C@@H]1Oc2nc(-c3cc(O)cc4cccc(F)c34)c(F)c3nc(OC[C@@]45CCCN4C[C@H](F)C5)nc(c23)N2C[C@H]3CC[C@H](N3)[C@@H]12` [Compound 9, 5-fluoro-4-((5S,5aS,6S,9R)-1-fluoro-12-(((2R,7aS)-2-fluorotetrahydro-1H-pyrrolizin-7a(5H)-yl)methoxy)-5-methyl-5a,6,7,8,9,10-hexahydro-5H-4-oxa-3,10a,11,13,14-pentaaza-6,9-methanonaphtho[1,8-ab]heptalen-2-yl)naphthalen-2-ol], the IC50 in assay [2] amounted to 11.6 nM; in assay [3], 7790 nM; at KRAS WT (setting [7]), 6.51 nM; in assay [1] it was 19.3 nM; on KRAS G12D (BODIPY-GDP exchange) it was 0.057 nM; in assay [4], 2020 nM.
Turning to `Fc1c(-c2cccc3cccc(Cl)c23)nc2c3c(ncnc13)N1C[C@H]3CC[C@H](N3)[C@H]1CO2` [Compound 53, (5aS,6S,9R)-2-(8-Chloronaphthalen-1-yl)-1-fluoro-5a,6,7,8,9,10-hexahydro-5H-4-oxa-3,10a,11,13,14-pentaaza-6,9-methanonaphtho[1,8-ab]heptalene], the half-inhibitory concentration (IC50) at KRAS WT (setting [7]) is no less than 200000 nM.
For the compound `Nc1nc2c(-c3nc4c5c(ncnc5c3F)N3C[C@H]5CC[C@H](N5)[C@H]3CO4)ccc(F)c2s1` [Compound 55, 7-fluoro-4-((5aS,6S,9R)-1-fluoro-5a,6,7,8,9,10-hexahydro-5H-4-oxa-3,10a,11,13,14-pentaaza-6,9-methanonaphtho[1,8-ab]heptalen-2-yl)benzo[d]thiazol-2-amine], the half-maximal inhibitory concentration (IC50) was 12800 nM in assay [3], no less than 200000 nM on KRAS WT (setting [7]) and no less than 20000 nM in assay [1].
Regarding `C[C@@H]1Oc2nc(-c3cc(N)nc4ccccc34)c(F)c3nc(OC[C@]45CCN4CC(F)(F)C5)nc(c23)N2C[C@H]3CC[C@H](N3)[C@@H]12` [Compound 79, 4-((5S,5aS,6S,9R)-12-(((R)-3,3-Difluoro-1-azabicyclo[3.2.0]heptan-5-yl)methoxy)-1-fluoro-5-methyl-5a,6,7,8,9,10-hexahydro-5H-4-oxa-3,10a,11,13,14-pentaaza-6,9-methanonaphtho[1,8-ab]heptalen-2-yl)quinolin-2-amine], the IC50 in assay [3] is no less than 20000 nM; in assay [1] it was 4040 nM; on KRAS G12D (BODIPY-GDP exchange), 22.7 nM.
Consider `Cc1nc(N)c(F)c(-c2nc3c4c(nc(OC[C@@]56CCCN5CC5(CC5(F)F)C6)nc4c2F)N2C[C@H]4CC[C@H](N4)[C@H]2[C@H](C)O3)c1C(F)(F)F` (stereo partly drawn) [Compound 221, 4-((5S,5aS,6S,9R)-12-(((7a′S)-2,2-Difluorodihydro-1′H,3′H-spiro[cyclopropane-1,2′-pyrrolizin]-7a′(5′H)-yl)methoxy)-1-fluoro-5-methyl-5a,6,7,8,9,10-hexahydro-5H-4-oxa-3,10a,11,13,14-pentaaza[6,9]methanonaphtho[1,8-ab]heptalene-2-yl)-3-fluoro-6-methyl-5-(trifluoromethyl)pyridin-2-amine], for which the half-inhibitory concentration (IC50) in assay [2] was determined as 1.45 nM; at KRAS WT (setting [6]) it was 9.95 nM; in assay [1], 1.2 nM; at KRAS G12D (setting [5]) it was 0.39 nM; in assay [4], 498 nM.
Consider `Cc1c(F)c(N)cc(-c2nc3c4c(nc(OC[C@@]56CCCN5C[C@H](F)C6)nc4c2F)N2C[C@H]4CC[C@H](N4)[C@H]2[C@@H](C(F)(F)F)O3)c1C(F)(F)F` [Compound 246, 2-Fluoro-5-((5S,5aS,6S,9R)-1-fluoro-12-(((2R,7aS)-2-fluorotetrahydro-1H-pyrrolizin-7a(5H)-yl)methoxy)-5-(trifluoromethyl)-5a,6,7,8,9,10-hexahydro-5H-4-oxa-3,10a,11,13,14-pentaaza-6,9-methanonaphtho[1,8-ab]heptalene-2-yl)-3-methyl-4-(trifluoromethyl)aniline], for which the IC50 in assay [2] is 2000 nM; at KRAS G12D (setting [5]), 311 nM; in assay [4] it was 20000 nM.
On to `Cc1nc(N)cc(-c2nc3c4c(nc(OCC5(CN6CC7COCC(C6)C7(F)F)CC5)nc4c2F)N2C[C@H]4CC[C@H](N4)[C@H]2[C@H](C)O3)c1C(F)(F)F` [Compound 266, 4-((5S,5aS,6S,9R)-12-((1-((9,9-difluoro-3-oxa-7-azabicyclo[3.3.1]nonan-7-yl)methyl)cyclopropyl)methoxy)-1-fluoro-5-methyl-5a,6,7,8,9,10-hexahydro-5H-4-oxa-3,10a,11,13,14-pentaaza-6,9-methanonaphtho[1,8-ab]heptalene-2-yl)-6-methyl-5-(trifluoromethyl)pyridin-2-amine], for which the half-inhibitory concentration (IC50) at KRAS G12D (setting [5]) worked out at 3.05 nM.
